Experiment [1] has as its target T1, Adenosine receptor A1 (Homo sapiens) (UniProt P30542).
T1 sequence (whole entry): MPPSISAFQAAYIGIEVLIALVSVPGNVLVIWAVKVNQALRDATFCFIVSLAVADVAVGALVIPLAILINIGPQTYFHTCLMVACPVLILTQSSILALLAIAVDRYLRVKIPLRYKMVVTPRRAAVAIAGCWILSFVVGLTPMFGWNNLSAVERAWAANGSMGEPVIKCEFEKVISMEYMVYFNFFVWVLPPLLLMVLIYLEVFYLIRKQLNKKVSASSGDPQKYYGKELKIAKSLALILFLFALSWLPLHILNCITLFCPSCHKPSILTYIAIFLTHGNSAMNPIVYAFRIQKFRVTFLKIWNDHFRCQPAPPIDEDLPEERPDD
Put plainly: Binding affinity to human adenosine A1 receptor expressed in CHO cells at 100 nM after 30 mins by confocal microscopy in presence of DPCPX. Type of experiment: cell-based.

Experiment [2] addresses T1, Adenosine receptor A1 (Homo sapiens). Description: Agonist activity at human adenosine A1 receptor expressed in CHO cells assessed as Gi-mediated inhibition of forskolin-stimulated SPAP secretion incubated for 10 mins prior to forskolin challenge measured after 5 hrs in presence of 1 uM adenosine A1 receptor antagonist XAC by spectrophotometry. In kind it is functional, cell-based.

For experiment [3] the target is unchanged. Put plainly: (§1) Agonist activity at human adenosine A1 receptor expressed in CHO cells assessed as Gi-mediated inhibition of forskolin-stimulated SPAP secretion incubated for 10 mins prior to forskolin challenge measured after 5 hrs by spectrophotometry. Type of experiment: functional, cell-based.
Experiment [4] deals with T2, Adenosine receptor A1 (Homo sapiens, UniProt P30542).
T2 sequence (P30542 whole entry): T1 sequence (whole entry)
Described as §1. In kind it is functional, cell-based.

Experiment [5] addresses T1, Adenosine receptor A1 (Homo sapiens). Description: (§2) Displacement of [3H]DPCPX from human adenosine A1 receptor expressed in CHO cells after 2 hrs by scintillation counting analysis relative to control. In kind it is cell-based. (Loss of bound radioactivity is the signal in a displacement assay; it reports binding, not function.)
The target in experiment [6] is T2, Adenosine receptor A1. Described as §2. In kind it is cell-based.
The target in experiment [7] is T1, Adenosine receptor A1 (Homo sapiens). Description: Binding affinity to human adenosine A1 receptor expressed in CHO cells at 100 nM after 30 mins by confocal microscopy. Type of experiment: cell-based.
For experiment [8] the target is unchanged. Put plainly: (§3) Agonist activity at human adenosine A1 receptor expressed in CHO cells assessed as Gs-mediated activation of forskolin-stimulated SPAP secretion incubated for 10 mins prior to forskolin challenge measured after 5 hrs by spectrophotometry. Type of experiment: functional, cell-based.
The target in experiment [9] is T2, Adenosine receptor A1. Described as §3. In kind it is functional, cell-based.
Experiment [10] addresses T1, Adenosine receptor A1 (Homo sapiens). Put plainly: Agonist activity at human adenosine A1 receptor expressed in CHO cells assessed as Gs-mediated activation of forskolin-stimulated SPAP secretion up to 10^-5 M incubated for 10 mins prior to forskolin challenge measured after 5 hrs by spectrophotometry. Type of experiment: functional, cell-based.
Experiment [11] has the same target. Put plainly: Binding affinity to human adenosine A1 receptor expressed in CHO cells assessed as internalization at 100 nM after 30 mins by confocal microscopy. Type of experiment: cell-based.

SMILES strings stand for the structures. Activity calls are given as the source filed them. The rule behind the calls is not given here.

`CCNC(=O)[C@H]1O[C@@H](n2cnc3c(NCCCNC(=O)COc4ccc(/C=C/C5=[N+]6C(=Cc7ccc(-c8cccs8)n7[B-]6(F)F)C=C5)cc4)ncnc32)[C@H](O)[C@@H]1O`: the result in [1] and in [2] was inactive. Further, the inhibition (usually the relative decrease from the control value, in per cent) in [3] came out at 97%. In addition, the half-inhibitory concentration (IC50) (as a rule, the midpoint of a concentration-inhibition curve) at Adenosine receptor A1 [4] was 0.49 nM. Further, the results for the Activity in experiment [5] and in [8] were 59% and 188%, respectively. Also, the Ki (usually the dissociation constant of the complex between target and ligand, obtained from inhibition or displacement) at Adenosine receptor A1 [6] is 417 nM. Besides, in experiment [7], the outcome was Active. In addition, the half-maximal effective concentration (EC50) (usually the midpoint of the concentration-response curve) on Adenosine receptor A1 [9] is 263 nM.

As to `CCNC(=O)[C@H]1O[C@@H](n2cnc3c(NCCOCCOCCNC(=O)COc4ccc(/C=C/C5=[N+]6C(=Cc7ccc(-c8cccs8)n7[B-]6(F)F)C=C5)cc4)ncnc32)[C@H](O)[C@@H]1O`, the outcome in [1], in experiment [2] and in [8] was inactive. Further, the inhibition in experiment [3] amounted to 102%. On Adenosine receptor A1 [4], the IC50 was 74.1 nM. Besides, the result in [7] was Active.

With `CCNC(=O)[C@H]1O[C@@H](n2cnc3c(NCCNC(=O)COc4ccc(/C=C/C5=[N+]6C(=Cc7ccc(-c8cccs8)n7[B-]6(F)F)C=C5)cc4)ncnc32)[C@H](O)[C@@H]1O`, the outcome in [1] and in experiment [2] was inactive. Also, the inhibition in experiment [3] was determined as 100%. Further, at Adenosine receptor A1 [4], the IC50 was 2.04 nM. The Activity is 50% in [5] and 64% in experiment [8]. The compound also had a Ki on Adenosine receptor A1 [6] of 363 nM. Moreover, the outcome in experiment [7] was Active. In addition, the 50% effective concentration (EC50) on Adenosine receptor A1 [9] is 234 nM.

On to `CCNC(=O)[C@H]1O[C@@H](n2cnc3c(N)ncnc32)[C@H](O)[C@@H]1O`, for which the outcome in experiment [2] was inactive. Besides, the inhibition in [3] worked out at 105%. Moreover, the Activity is 73% in experiment [5] and 177% in experiment [8].

Consider `CCNC(=O)[C@H]1O[C@@H](n2cnc3c(NCCCCNC(=O)COc4ccc(/C=C/C5=[N+]6C(=Cc7ccc(-c8cccs8)n7[B-]6(F)F)C=C5)cc4)ncnc32)[C@H](O)[C@@H]1O`, for which the outcome in [1] and in [2] was inactive. In addition, the inhibition in [3] came to 101%. Moreover, the 50% inhibitory concentration (IC50) at Adenosine receptor A1 [4] was 5.25 nM. The Activity stood at 43% in [5] and 155% in experiment [8]. This compound gave a Ki at Adenosine receptor A1 [6] of 263 nM. The concentration for a half-maximal effect (EC50) on Adenosine receptor A1 [9] is 2340 nM.

As for `CCNC(=O)[C@H]1O[C@@H](n2cnc3c(NCCCCCCCCNC(=O)COc4ccc(/C=C/C5=[N+]6C(=Cc7ccc(-c8cccs8)n7[B-]6(F)F)C=C5)cc4)ncnc32)[C@H](O)[C@@H]1O`, the result in [1], in experiment [2], in experiment [10] and in experiment [8] was inactive. Moreover, the IC50 on Adenosine receptor A1 [4] was 26.9 nM.

As for `CCNC(=O)[C@H]1O[C@@H](n2cnc3c(NCCCCCCCCCCCNC(=O)COc4ccc(/C=C/C5=[N+]6C(=Cc7ccc(-c8cccs8)n7[B-]6(F)F)C=C5)cc4)ncnc32)[C@H](O)[C@@H]1O`, the result in experiment [11] was Active. For the same compound, the outcome in experiment [1], in [2], in experiment [10] and in experiment [8] was inactive. The IC50 at Adenosine receptor A1 [4] was 129 nM.

With `CCNC(=O)[C@H]1O[C@@H](n2cnc3c(NCCOCCOCCOCCNC(=O)COc4ccc(/C=C/C5=[N+]6C(=Cc7ccc(-c8cccs8)n7[B-]6(F)F)C=C5)cc4)ncnc32)[C@H](O)[C@@H]1O`, the outcome in [2] and in [8] was inactive. Besides, the inhibition in [3] is 99%. Besides, the half-inhibitory concentration (IC50) on Adenosine receptor A1 [4] was 191 nM.
